We go through 14 compounds from patent publication US5817670A, “Naphthyridine derivatives and pharmaceutical compositions thereof” (Yamanouchi Pharmaceutical Co., Ltd., priority 1994, dated 1998).

Where a name gives a salt, the structure may show the parent alone.

Assay [1] addresses type IV phosphodiesterase. The assay is described as follows: Phosphodiesterase inhibition activity (in vitro), Type IV. It is filed as biochemical, human (peripheral blood of a healthy person). Here is the method:
(1) Method for measuring type IV phosphodiesterase inhibition activity
The following assay was used for the evaluation of the capability of the compounds of the present invention to inhibit type IV phosphodiesterase.
1) Physiological saline (200 ml) supplemented with dextran (3%) was added to 500 ml of heparinized peripheral blood of a healthy person and incubated at 37° C. for 40 minutes to effect precipitation of erythrocytes. The supernatant after precipitation of erythrocytes was recovered and centrifuged once, and the resulting precipitate was suspended in buffer A (140 mM NaCl, 5 mM KCl, 5 mM glucose and 10 mM HEPES, pH 7.4), overlaid on a solution for density gradient centrifugation use (Ficoll solution) and then centrifuged at room temperature for 40 minutes at 450×g, thereby separating monocyte fraction and granulocyte fraction. The granulocyte fraction was washed once with buffer B (140 mM NaCl, 5 mM KCl, 1 mM CaCl2, 1 mM MgCl2, 5 mM glucose and 10 mM HEPES, pH 7.4) and suspended in buffer C (20 mM Bis-Tris, 5 mM dithioerythritol, 2 mM EGTA and 50 mM sodium acetate, pH 6.5) containing a protease inhibitor (50 μM phenyl-methyl-sulfonyl-fluoride, 5 μM pepstatin A, 40 μM leupeptin, 20 μM aprotinin or 2 mM benzamidine) and then the cells were disrupted using polytron and sonicator and subjected to ultracentrifugation (4° C., 100,000×g, 60 minutes) to give a soluble fraction.
2) The thus obtained soluble fraction was applied to a column of 1.6×10 cm packed with Q Sepharose which had been equilibrated with buffer C. Next, the column was washed with 300 ml of buffer C to remove non-absorbed protein. Phosphodiesterase was eluted with 200 ml of buffer C having 0.05 to 1.25M linear gradient of sodium acetate to collect 40 fractions each containing 5.0 ml eluate. Each fraction was checked for cAMP- and cGMP-metabolizing phosphodiesterase activities. Fractions having no cGMP- but cAMP-metabolizing activity and showing disappearance of the metabolizing activity by 10 μM rolipram (a type IV phosphodiesterase selective inhibitor) were collected to be used as a stock solution for the examination of type IV phosphodiesterase inhibition activity.
3) A predetermined amount of each compound to be tested was subjected to 10 minutes of reaction at 30° C. in a reaction mixture containing 40 mM Tris-HCl (pH 8.0), 5 mM MgCl2, 4 mM 2-mercaptoethanol, 0.3 μM cilostamide (a type III phosphodiesterase selective inhibitor), 1 μM cAMP, 10 nM ^3 H-cAMP and the type IV phosphodiesterase stock solution. The reaction solution was boiled at 90° C. for 1 minute, ice-cooled, mixed with 1 unit of 5'-nucleotidase and then subjected to 10 minutes of reaction at 30° C., and the reaction was stopped by the addition of 1 ml of methanol. The reaction solution was passed through a Dowex 1×8 column to adsorb un-hydrolyzed material and then the radioactivity was measured.
4) Concentration of each compound to be tested which inhibits 50% of the metabolic activity of type IV phosphodiesterase was calculated and expressed as IC50. (2) Method for measuring the activity to inhibit various phosphodiesterase isozymes
Results: The inhibition activity (IC50) value for h type of phosphodiesterase (Type I, Type II, Type III, e IV, and Type V) is shown in the following table.

In assay [2] the target is T1, type V phosphodiesterase (Homo sapiens, UniProt O76074).
T1 construct: from tissue; host or cells: human peripheral blood granulocyte fraction, soluble, Q Sepharose
In words: Phosphodiesterase inhibition activity (in vitro), Type V. In kind it is biochemical, human (peripheral blood of a healthy person). The following applies: 1 μM cGMP. From the text:
(A) In order to evaluate selectivity of the compounds of the present invention for type IV phosphodiesterase, types I, II, III and V phosphodiesterase isozymes were purified in the following manner.
2) Solutions containing various phosphodiesterase isozymes were obtained from the thus obtained soluble fraction in the following manner. The thus, obtained soluble fraction was applied to a column of 1.6×10.0 cm packed with Q Sepharose which had been equilibrated with buffer A. Next, said column was washed with 300 ml of buffer A to remove non-absorbed protein. Phosphodiesterase was eluted with 200 ml of buffer A having 0.05 to 1.25M linear gradient of sodium acetate to collect about 40 fractions each containing 5.0 ml eluate. Each fraction was checked for cAMP- and cGMP-metabolizing phosphodiesterase activities. Of these fractions, a fraction having only cAMP-metabolizing activity and showing disappearance of the metabolizing activity by 0.1 μM cilostamide (a type III phosphodiesterase selective inhibitor) was used as the type III phosphodiesterase. […] These fractions were separately collected to be used as phosphodiesterase (types I, II and III) stock solutions for the examination of selectivity. p1 3) A solution containing type V phosphodiesterase was prepared from peripheral blood of a healthy person in the following manner. A 200 ml portion of physiological saline supplemented with dextran (3%) was added to 500 ml of heparinized peripheral blood and incubated at 37° C. for 40 minutes to effect precipitation of erythrocytes. The supernatant fluid after precipitation of erythrocytes was recovered and centrifuged once, and the resulting precipitate was suspended in buffer B (140 mM NaCl, 5 mM KCl, 5 mm glucose and 10 mM HEPES, pH 7.4), overlaid on a solution for density gradient centrifugation use (Ficoll solution) and then centrifuged at room temperature for 40 minutes at 450×g, thereby separating monocyte fraction and granulocyte fraction. The granulocyte fraction was washed once with buffer C (140 mM NaCl, 5 mM KCl, 1 mM CaCl2, 1 mM MgCl2, 5 mM glucose and 10 mM HEPES, pH 7.4) and suspended in buffer D (20 mM Bis-Tris, 5 mM dithioerythritol, 2 mM EGTA and 50 mM sodium acetate, pH 6.5) containing a protease inhibitor (40 μM leupeptin, 5 μM pepstatin A, 20 μM aprotinin, 50 μM phenyl-methyl-sulfonyl-fluoride or 2 mM benzamidine) and then the cells were disrupted using polytron and sonicator and subjected to ultracentrifugation (4° C., 100,000×g, 60 minutes) to give a soluble fraction.
4) The thus obtained soluble fraction was applied to a column of 1.6×10 cm packed with Q Sepharose which had been equilibrated with buffer D. Next, the column was washed with 120 ml of buffer D to remove non-absorbed protein. Phosphodiesterase was eluted with 300 ml of buffer D having 0.05 to 1.25M linear gradient of sodium acetate to collect fractions each containing 5.0 ml eluate. Each fraction was checked for cAMP- and cGMP-metabolizing phosphodiesterase activities. Fractions having only cGMP metabolizing activity were collected to be used as the type V phosphodiesterase stock solution.
(B) Inhibitory activities were measured using the thus obtained stock solutions of various phosphodiesterase isozymes.
1) A predetermined amount of each compound to be tested was subjected to 10 minutes of reaction at 30° C. in a reaction mixture containing 40 mM Tris-HCl (pH 8.0), 5 mM MgCl2, 4 mM 2-mercaptoethanol, 10 μM rolipram (a type IV phosphodiesterase selective inhibitor), 1 μM cAMP, 10 nM ^3 H-cAMP (in the case of type V phosphodiesterase, 1 μM cAMP and 10 nM ^3 H-cAMP are replaced by 1 μM cGMP and 100 nM ^3 H-cGMP) and each of the isozyme stock solutions. After completion of the reaction, the reaction mixture was boiled at 90° C. for 1 minute, ice-cooled, mixed with 1 unit of 5'-nucleotidase and then subjected to 10 minutes of reaction at 30° C., and the reaction was stopped by adding 1 ml of methanol. […]

Take `CCn1c(=O)cc(-c2cccc(Cl)c2)c2cccnc21` [Example 15, 4-(3-Chlorophenyl)-1-ethyl-1,8-naphthyridin-2(1H)-one]: the IC50 (usually the midpoint of a concentration-inhibition curve) in assay [1] came out at 58.9 µM; in assay [2] it was 41.2 µM.
As to `Cc1cc(C)c2c(-c3cccc(Cl)c3)cc(=O)n(C)c2n1` [Example 24, 4-(3-chlorophenyl)-1,5,7-trimethyl-1,8-naphthyridin-2(1H)-one], the IC50 in assay [1] is 98.3 µM; in assay [2] it was 9.7 µM.
On to `CCc1cc(C)c2c(-c3ccccc3)cc(=O)n(C)c2n1` [Example 26, 7-Ethyl-1,5-dimethyl-4-phenyl-1,8-naphthyridin-2(1H)-one], for which the IC50 in assay [1] is 84.9 µM; in assay [2], 27.3 µM.
In the same order, the values of `CCc1cc(C)c2c(-c3cccc(Cl)c3)cc(=O)n(C)c2n1` [Example 27, 4-(3-Chlorophenyl)-7-ethyl-1,5-dimethyl-1,8-naphthyridin-2(1H)-one] are above 30 µM and 27.9 µM.
Turning to `CCn1c(=O)cc(-c2cccc(Cl)c2)c2c(C)cc(C)nc21` [Example 29, 4-(3-Chlorophenyl)-1-ethyl-5,7-dimethyl-1,8-naphthyridin-2(1H)-one], the IC50 in assay [1] is above 30 µM; in assay [2] it was 24.6 µM.
In the case of `CCn1c(=O)cc(-c2cccc(Br)c2)c2c(C)cc(C)nc21` [Example 30, 4-(3-Bromophenyl)-1-ethyl-5,7-dimethyl-1,8-naphthyridin-2(1H)-one], the IC50 in assay [1] worked out at 31.2 µM; in assay [2] it was 8.66 µM.
For `CCc1cc(C)c2c(-c3cccc(Br)c3)cc(=O)n(CC)c2n1` [Example 31, 4-(3-bromophenyl)-1,7-diethyl-5-methyl-1,8-naphthyridin-2(1H)-one], the IC50 in assay [1] and in assay [2] was above 30 µM throughout.
Turning to `CCCn1c(=O)cc(-c2cccc(Br)c2)c2c(C)cc(CC)nc21` [Example 33, 4-(3-Bromophenyl)-7-ethyl-5-methyl-1-propyl-1,8-naphthyridin-2(1H)-one], the IC50 is above 30 µM in assay [1] and 8.39 µM in assay [2].
With `CCc1cc(C)c2c(-c3cccc(Cl)c3)cc(=O)n(C3CC3)c2n1` [Example 35, 4-(3-Chlorophenyl)-1-cyclopropyl-7-ethyl-5-methyl-1,8-naphthyridin-2(1H)-on], the IC50 was determined as 21.9 µM in assay [1] and 41.6 µM in assay [2].
For `CCn1c(=O)cc(-c2ccccc2)c2c(C)cc(C)nc21` [Example 38, 1-Ethyl-5,7-dimethyl-4-phenyl-1,8-naphthyridin-2(1H)-one], the IC50 was above 30 µM in assay [1] and 19.6 µM in assay [2].
For `CCc1cc(C)c2c(-c3ccccc3)cc(=O)n(CC)c2n1` [Example 40, 1,7-Diethyl-5-methyl-4-phenyl-1,8-naphthyridin-2(1H)-one], the IC50 in assay [1] amounted to 31.9 µM; in assay [2], 14.5 µM.
In the case of `CCc1cc(C)c2c(-c3cccc(Cl)c3)cc(=S)n(C)c2n1` [Example 43, 4-(3-chlorophenyl)-7-ethyl-1,5-dimethyl-1,8-naphthyridine-2(1H)-thione], the IC50 in assay [1] is above 30 µM; in assay [2] it was 4.79 µM.
In the same order, the values of `CCn1c(=O)cc(C2CCCCC2)c2cccnc21` [Example 46, 4-cyclohexyl-1-ethyl-1,8-naphthyridin-2(1H)-one 0.45 hydrochloride 0.25 hydrate] are above 30 µM and 87 µM.
With `CCc1cc(C)c2c(C3CCCCC3)cc(=O)n(CC)c2n1` [Example 49, 4-cyclohexyl-1,7-diethyl-5-methyl-1,8-naphthyridin-2(1H)-one], the results for the concentration for half-maximal inhibition (IC50) in assay [1] and in assay [2] were 30.2 µM and 3.87 µM, respectively.
